Assays:
[1] = system: HLA-A2; details: WO 2005/090560; cited from earlier work
[2] = system: splenocytes; assay: Peptide immunisation of HHDII/DRI mice, ex vivo IFNγ ELISPOT of splenocytes; assay type: in vivo
Experimental: FIG. 11. Comparison of IFNγ responses generated by splenocytes isolated from HHDII/DRI mice that have been immunised with PAP-114-128 peptide and PAP-114-128 analogue peptide, as determined using an ex vivo ELISPOT. HHDII/DRI mice were immunised with 100 μg of PAP-114-128 on day 1 and 75 μg of PAP-115-123 on day 14, or 100 μg of PAP-114-128 analogue peptide on day 1 and 75 μg of PAP-115-123 on day 14. Splenocytes were isolated for the ex vivo ELISPOT assay a week after the final immunisation. For the assay, 1×10^6 splenocytes were co-cultured with 1 μg of class I PAP-115-123 peptide or PAP-115-123 analogue peptide or 10 μg of class II PAP-114-128 peptide or PAP-114-128 analogue peptide. Splenocytes with no added peptide were used as control. Comparisons of means (±SEM) between groups (splenocytes pulsed with class I/class II peptide or class I/class II analogue peptide) are made using an unpaired t test. The experiment was performed with three mice per group.
The immunogenic efficiencies of the PAP-115-123 epitope peptide and the PAP-115-123 analogue peptides were further compared using transgenic HHDII/DRI mice. For this, HHDII/DRI mice in the PAP-114-128 peptide immunisation group were immunised with 100 μg of PAP-114-128 on day 1 and 75 μg of PAP-115-123 on day 14. HHDII/DRI mice in the PAP-114-128 analogue peptide immunisation group was immunised with 100 μg of PAP-114-128 analogue peptide on day 1 and 75 μg of PAP-115-123 on day 14. A week after the final immunisation spleens were isolated for the ex vivo ELISPOT assay. For the assay, 1×10^6 splenocytes were co-cultured with 1 μg of class I PAP-115-123 peptide or PAP-115-123 analogue peptide or 10 μg of class II PAP-114-128 peptide or PAP-114-128 analogue peptide. Splenocytes with no added peptide were used as control. […] The experiment was performed with three mice per group.

[3] = system: splenocytes; assay: Peptide immunisation of C57Bl/6 mice, ex vivo IFNγ ELISPOT of splenocytes; assay type: in vivo; details: for number of spots generated by splenocytes from immunised animals: 100 μg 15-mer day 1, PAP-115-123 day 14, 1×10^6 splenocytes with 1 μg 9-mer peptide, 3 mice
Experimental: FIG. 9. Comparison of IFNγ responses induced by PAP-115-123 peptide and PAP-115-123 analogue peptide immunisation (A) and to varying PAP-115-123 peptide/analogue peptide concentrations (B), as determined using an ex vivo ELISPOT. C57Bl/6 mice in the PAP-115-123 peptide immunisation group were immunised with 100 μg of PAP-114-128 on day 1 and 75 μg of PAP-115-123 on day 14. C57Bl/6 mice in the PAP-115-123 analogue peptide immunisation group were immunised with 100 μg of PAP-114-128 analogue peptide on day 1 and 75 μg of PAP-115-123 on day 14. A week after the final immunisation, spleens were isolated for the ex vivo ELISPOT assay. For the assay, 1×10^6 splenocytes were co-cultured with 1 μg of PAP-115-123 peptide or PAP-115-123 analogue peptide. Splenocytes with no added peptide were used as control. Comparisons of means (±SEM) between groups (splenocytes pulsed with PAP-115-123 peptide or PAP-115-123 analogue peptide) are made with an unpaired t test. The experiment was performed with three mice per group.
The PAP-115-123 peptide which was obtained by altering the second amino acid of the sequence from alanine to […] was predicted to have a higher HLA-2 binding score by the syfpeithi database. The binding score of PAP-115-123 epitope (SAMTNLAAL) (SEQ ID NO. 13) to HLA-A2.1 was 24 and that of the analogue peptide (SLMTNLAAL) (SEQ ID NO. 8) was 30. The immunogenicity of PAP-115-123 epitope and its analogue epitope was assessed by immunising syngeneic C57Bl/6 mice with these peptides. C57Bl/6 mice were immunised with 100 μg of PAP-114-128 on day 1 and […] of PAP-115-123 on day 14 or 100 μg of PAP-114-128 analogue peptide on day 1 and […] of PAP-115-123 on day 14. A week after the final immunisation spleens were isolated for the ex vivo ELISPOT assay. For this, 1×10^6 splenocytes were co-cultured with 1 μg of PAP-115-123 peptide or PAP-115-123 analogue peptide. Splenocytes with no added peptide were used as control. A 2-fold higher IFNγ response by splenocytes from animals immunised with the PAP-114-128 analogue peptide was observed (FIG. 9A). The number of spots in generated by splenocytes from PAP-114-128 immunised animals was 280, whereas the number of spots generated by splenocytes from PAP-114-128 analogue immunised animals was 590. Comparisons of means (±SEM) between groups (splenocytes pulsed with PAP-114-128 peptide or PAP-114-128 analogue peptide) were performed using the unpaired t test, and there were 3 animals in each group. Peptide-specific IFNγ responses generated by splenocytes that had been pulsed with varying concentrations (10, 1, 0.1, 0.01, 0.001 and 0.0001 mg/ml) of PAP-15-123 epitope or analogue epitope were also evaluated.

[4] = system: TRAMP-C1 cells; assay: Ex vivo IFNγ ELISPOT of splenocytes of immunised mice co-cultured with TRAMP-C1 or MC38 cells; assay type: in vivo, C57Bl/6 mice
Experimental: FIG. 10. Comparison of IFNγ responses generated by splenocytes from mice that have been immunised with PAP-115-123 analogue peptide, and which have been co-cultured with TRAMP-C1 cells and MC38 cells, as determined using an ex vivo ELISPOT. C57Bl/6 mice were immunised with 100 μg of PAP-114-128 analogue peptide on day 1 and 75 μg of PAP-115-123 on day 14. Splenocytes were isolated for the ex vivo ELISPOT assay a week after the final immunisation. For the assay, 1×10^6 splenocytes were co-cultured with 1×10^5 TRAMP-C1 ‘stimulator’ cells. Control wells received 1×10^5 MC38 cells as stimulator cells. Comparisons of means (±SEM) between groups (splenocytes pulsed with TRAMP-C1 or MC38) are made using an unpaired t test. The experiment was performed with three mice per group.
To assess whether the T cells generated following PAP-114-128 analogue peptide immunisation could recognise naturally processed PAP-115-123 epitopes, the IFNγ response of splenocytes from the immunised mice that had been co-cultured with TRAMP-C1 cells (that naturally express PAP) was assessed using the ELISPOT. For this, 1×10^6 splenocytes were co-cultured with 1×10^5 TRAMP-C1 cells as stimulator cells. […] The number of spots generated by co-culture splenocytes with TRAMP-C1 cells was 650, whereas and number of spots obtained when using MC38 cells as stimulators was 100. The experiment was performed with three mice per group.

[5] = system: PBMCs from HLA-A2 positive patients with prostate cancer and individuals with benign disease; assay: IFNγ ELISPOT of PBMCs from prostate cancer patients and individuals with benign disease after peptide re-stimulation; assay type: cell-based, human; details: for peptide-specific IFNγ response in samples from individuals with benign disease: 10 benign individuals
Experimental: FIG. 3. IFNγ response of peripheral blood mononuclear cells (PBMCs) isolated from patients with prostate cancer and individuals with benign disease after re-stimulation with PAP-115-123 epitope using an ELISPOT assay. Cryopreserved PBMCs from ten HLA-A2 positive prostate cancer patients and ten benign candidates were compared. The PBMCs were cultured in vitro with 5 μg of PAP-114-128 epitope for 7 days. The cells were then washed and rested overnight and 4×10^4 cells were added to each well of an ELISPOT plate. PAP-115-123 epitope peptide (1 μg) was added per well and cells cultured for 48 hours. The plates were then washed according to the manufacturer's protocol. PBMCs with no added peptide were used as control. Comparisons of means (±SEM) between groups (cells pulsed with PAP-115-123 or no peptide) are made using an unpaired t test.
FIG. 12. IFNγ responses generated by PBMCs isolated from 10 patients with prostate cancer and 10 individuals with benign disease after re-stimulation with the PAP-115-123 analogue epitope peptide, as determined using an ELISPOT assay. PBMCs were cultured in vitro with 5 μg of PAP-114-128 analogue epitope for 7 days. The cells were then washed and rested overnight, at which time and 4×10^4 cells were added to each well of an ELISPOT plate. PAP-115-123 analogue epitope peptide (1 μg) was added to each well and the cells were cultured for 48 hours. The plates were then washed according to the manufacturer's protocol. PBMCs cultured with no added peptide were used as the control. Comparisons of means (±SEM) between groups (PBMCs pulsed with PAP-115-123 analogue or no peptide) are made using an unpaired t test.
To determine the presence of circulating T cells specific for PAP-115-123 in humans, PBMCs from HLA-A2 positive patients with prostate cancer and individuals with benign disease were used. Cryopreserved PBMCs were thawed, washed and restimulated for 7 days with […] epitope peptide. The cells were then washed and rested overnight, at which time 4×10^4 cells were added to each well of an ELISPOT plate. PAP-115-123 epitope peptide (1 μg) was added to each well and the cells cultured for 48 hours. The plates were developed according to the manufacturer's instructions. PBMCs cultured with no peptide were used as controls. […] The number of IFNγ spots generated by PBMCs from one of the patients was as high as 220 (vs 60 spots for the control). The number of spots generated by PBMCs for the other 6 patients with prostate cancer ranged between 50 and 100 (vs 10-20 in controls). Although some of the PBMCs from individuals with benign disease generated 50-100 spots, the number of spots in the control wells was also high.
To determine the presence of circulating T cells specific for PAP-115-123 analogue peptide in humans, PBMCs from HLA-A2 positive patients with prostate cancer and individuals with benign disease were used. Cryopreserved PBMCs were thawed, washed and restimulated for 7 days with […] analogue epitope. The cells were then washed and rested overnight, at which time 4×10^4 cells were added to each well of an ELISPOT plate. 1 μg of PAP-115-123 analogue epitope was added to each well and cells were cultured for 48 hours. The plates were developed as per the manufacturer's instructions. PBMCs cultured with no peptide were used as control. […] The number of IFNγ spots in one of the patients was as high as 180 spots compared to control (54 spots). Similar response was also obtained when PBMCs were co-cultured with PAP-115-123 epitope (FIG. 3). The number of spots generated by PBMCs from the 6 patients with prostate cancer patients ranged between 50 and 100 (vs 10-20 in control wells). Although some of the samples from individuals with benign disease generated 50-100 spots, the number of spots in the control wells was also high.

## ILLWQPIPV (PAP with Ala to Leu change at position 115) [PAP 135]
[1]
  binding to HLA-A2: strong binding

## MSLMTNLAALFPPEG (PAP with A-L mutation at position 3 of peptide) [PAP-114-128 analogue peptide]
[2]; discussion
  immune response on the basis of the IFNγ response, compared to immunisation with PAP-114-128: significantly more potent
[3]
  number of spots generated by splenocytes from immunised animals: 590 spots
[3]; C57Bl/6, FIG. 9A
  fold higher IFNγ response vs PAP-114-128 immunisation: 2 fold
[3]; C57Bl/6 mice, discussion
  immune response on the basis of the IFNγ response, compared to immunisation with PAP-114-128: significantly more potent
[3]; peptide concentrations of 1, 0.1, 0.01 and 0.001 mg/ml, p<0.05, FIG. 9B
  IFNγ response of splenocytes pulsed with varying peptide concentrations vs native peptide group: significantly higher
[4]; 1×10^5 MC38 cells (do not express PAP)
  number of spots, MC38 cells as stimulators: 100 spots
[4]; 1×10^6 splenocytes, 1×10^5 TRAMP-C1 cells (naturally express PAP)
  number of spots, splenocytes co-cultured with TRAMP-C1 cells: 650 spots
[4]; discussion
  lysis of TRAMP-C1 cells by T cells generated in C57Bl/6 mice: able to lyse TRAMP-C1 cells
[4]; unpaired t-test, p<0.05
  IFNγ response with TRAMP-C1 vs MC38 cells: Significantly higher

## PAP-114-128: immunogenic class II PAP epitope that incorporates class I PAP-115-123 (MSAMTNLAALFPPEG; UniProt P15309 114-128, looked up, fragment)
[2]; 10 μg class II peptide
  IFNγ response of splenocytes co-cultured with class II epitope: No significant IFNγ response
[3]
  number of spots generated by splenocytes from immunised animals: 280 spots

## SLMTNLAAL (PAP with A-L mutation at position 2 of peptide) [PAP-115-123 analogue peptide, 9-mer PAP analogue with alanine changed to leucine]
[2]; 1 μg class I peptide, vs native peptide group, p<0.05
  IFNγ response of splenocytes co-cultured with class I PAP115-123 and PAP-115-123 analogue peptide epitopes: significantly higher
[5]; 1 μg peptide, 4×10^4 cells per well, 10-20 in controls
  number of spots, other 6 patients with prostate cancer: 50-100 spots
[5]; 1 μg peptide, spots in control wells also high
  number of spots, some PBMCs from individuals with benign disease: 50-100 spots
[5]; 1 μg peptide, listed as PAP115-123 analogue peptide
  peptide-specific IFNγ response in samples from individuals with benign disease: not responsive
[5]; 1 μg peptide, listed as PAP-115-123 analogue
  peptide-specific IFNγ response in samples from individuals with benign disease: no PAP-115-123 analogue specific IFNγ response
[5]; discussion
  responsiveness of PBMCs from patients with prostate cancer: greater
[5]; of 10 samples, 7 days re-stimulation with the 15-mer, then 1 μg peptide, 48 hours, vs no peptide
  PBMC samples from patients with prostate cancer with peptide-specific IFNγ response: 7
[5]; one prostate cancer patient, 1 μg peptide, 4×10^4 cells per well, 48 hours
  number of IFNγ spots, highest patient: 180 spots

Reference: patent US10137185B2, “PAP peptide analogues” (THE NOTTINGHAM TRENT UNIVERSITY, priority 2014, dated 2018)
